The text below walks through data of ChEMBL document CHEMBL1139967, “Design, synthesis, and SAR of macrocyclic tertiary carbinamine BACE-1 inhibitors” (Bioorg Med Chem Lett, 2007).

One data set is described as follows: in vitro. The conditions noted are these: human, LLC-PK1.
In a further data set the target is T1, Renin (Homo sapiens, UniProt P00797).
T1 sequence (P00797 whole entry): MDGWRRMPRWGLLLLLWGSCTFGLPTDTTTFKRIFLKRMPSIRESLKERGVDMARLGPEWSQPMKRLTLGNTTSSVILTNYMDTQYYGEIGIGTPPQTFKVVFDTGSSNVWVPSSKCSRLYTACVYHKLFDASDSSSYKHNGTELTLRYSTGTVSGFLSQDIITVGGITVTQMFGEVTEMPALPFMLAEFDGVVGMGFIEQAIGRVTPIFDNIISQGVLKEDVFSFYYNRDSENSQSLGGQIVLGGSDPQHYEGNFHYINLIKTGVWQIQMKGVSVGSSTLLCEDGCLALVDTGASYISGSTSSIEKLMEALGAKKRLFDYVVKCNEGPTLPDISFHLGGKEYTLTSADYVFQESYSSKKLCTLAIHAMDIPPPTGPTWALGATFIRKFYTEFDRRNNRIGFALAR
The data set is described as follows: Inhibition of renin.

The target of the next data set is T2, Beta-secretase 2 (Homo sapiens, UniProt Q9Y5Z0).
T2 sequence (Q9Y5Z0 whole entry): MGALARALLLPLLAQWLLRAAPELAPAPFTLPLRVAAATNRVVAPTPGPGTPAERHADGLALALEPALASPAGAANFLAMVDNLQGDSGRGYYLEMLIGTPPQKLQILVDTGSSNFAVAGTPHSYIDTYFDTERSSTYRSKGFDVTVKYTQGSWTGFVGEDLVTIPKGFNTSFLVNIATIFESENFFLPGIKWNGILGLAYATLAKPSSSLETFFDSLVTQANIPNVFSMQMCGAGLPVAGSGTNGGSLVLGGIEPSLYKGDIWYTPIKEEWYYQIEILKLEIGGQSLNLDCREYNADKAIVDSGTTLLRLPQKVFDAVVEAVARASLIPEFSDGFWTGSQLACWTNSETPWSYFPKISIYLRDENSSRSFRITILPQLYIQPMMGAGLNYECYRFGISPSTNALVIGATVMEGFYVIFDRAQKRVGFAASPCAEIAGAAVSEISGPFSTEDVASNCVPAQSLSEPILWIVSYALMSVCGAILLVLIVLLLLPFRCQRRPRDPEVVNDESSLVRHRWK
The data set is described as follows: Inhibition of BACE2.

Another data set addresses Cathepsin D (Homo sapiens, UniProt P07339).
A further data set has as its system Brain. The data set is described as follows: Drug level in mouse brain at 30 mg/kg, ip after 2 hrs. In kind it is ADME, organism-based. Also noted: dose 30 mg/kg, route intraperitoneal. The following applies: in vivo.

As usually defined, the Papp is a coefficient for how fast a substance crosses the barrier. As usually defined, the IC50 is the concentration at which inhibition is half-maximal. High values mean weaker potency in that assay, low ones greater potency in that assay.

Cathepsin D, sequence (P07339 65-162 limits assumed): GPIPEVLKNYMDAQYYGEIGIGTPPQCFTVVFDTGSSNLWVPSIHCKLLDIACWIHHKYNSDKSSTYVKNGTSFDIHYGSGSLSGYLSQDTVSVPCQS
Cathepsin D, sequence (P07339 169-412 limits assumed): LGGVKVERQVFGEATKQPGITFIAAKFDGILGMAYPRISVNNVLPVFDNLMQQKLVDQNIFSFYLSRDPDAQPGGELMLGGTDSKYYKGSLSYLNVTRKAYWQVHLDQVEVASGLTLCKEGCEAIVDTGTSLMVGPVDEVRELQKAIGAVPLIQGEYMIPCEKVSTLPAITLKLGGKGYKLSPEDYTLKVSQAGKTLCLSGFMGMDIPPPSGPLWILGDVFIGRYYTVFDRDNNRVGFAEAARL
Description for Cathepsin D: Inhibition of cathepsin D
Description for in vitro: Apparent permeability across L-MDR1 cells

`CN(C)S(=O)(=O)N(C)c1cc2cc(c1)C(=O)N[C@@H](c1ccccc1)CCc1cccc(c1)C[C@@](C)(N)C(=O)OC2`: in “in vitro”, the Papp was 150 nm/s.

Compound `C[C@@]1(N)Cc2cccc(c2)CC[C@H](c2ccccc2)NC(=O)c2cc(Br)cc(c2)COC1=O` returned a Papp in “in vitro” of 90 nm/s.

Turning to `C[C@@]1(N)Cc2ccc(F)c(c2)CC[C@H](c2ccc(F)cc2)NC(=O)c2cc(cc(-c3cccc(F)c3C#N)c2)COC1=O`, the Papp in the data set “in vitro” was determined as 60 nm/s.

For the compound `CCCN(c1cc2cc(c1)C(=O)N[C@@H](c1ccccc1)CCc1cccc(c1)C[C@@](C)(N)COC2)S(C)(=O)=O`, the values for the IC50 against Renin, at Beta-secretase 2 and against Cathepsin D were 144 µM, 1.6 µM and 275 µM, respectively.

As for `CN(c1cc2cc(c1)C(=O)N[C@@H](c1ccccc1)CCc1cccc(c1)C[C@@](C)(N)C(=O)OC2)S(=O)(=O)C(F)(F)F`, the Papp in the data set “in vitro” was 130 nm/s.

`CN(c1cc2cc(c1)C(=O)N[C@@H](c1ccccc1)CCc1cccc(c1)C[C@@](C)(N)C(=O)OC2)S(C)(=O)=O`: in the data set “in vitro”, the Papp is 90 nm/s.

The compound `C[C@@]1(N)Cc2cccc(c2)CC[C@H](c2ccccc2)NC(=O)c2cc(cc(-c3ccccc3C#N)c2)COC1=O` registered an Activity in the data set on Brain of 16%. Also, the IC50 was 275 µM against Renin, 41 µM on Beta-secretase 2 and 48 µM at Cathepsin D. In addition, in “in vitro”, the apparent permeability coefficient (Papp) turned out to be 90 nm/s.

For the compound `CCCN(c1cc2cc(c1)C(=O)N[C@@H](c1ccccc1)CCc1cccc(c1)C[C@@](C)(N)C(=O)OC2)S(C)(=O)=O`, the IC50 against Renin turned out to be 169 µM; on Beta-secretase 2, 54 µM; against Cathepsin D it was 97 µM.

The compound `C[C@@]1(N)Cc2cccc(c2F)CC[C@H](c2ccc(F)cc2)NC(=O)c2cc(cc(-c3ccccc3C#N)c2)COC1=O` had an apparent permeability (Papp) in “in vitro” of 60 nm/s.

In “in vitro”, `C[C@@]1(N)Cc2cccc(c2)CC[C@H](c2ccc(F)cc2)NC(=O)c2cc(cc(-c3cccc(F)c3C#N)c2)COC1=O` registered a Papp of 70 nm/s.

Compound `CN(c1cc2cc(c1)C(=O)N[C@@H](c1ccccc1)CCc1cccc(c1)C[C@@](C)(N)C(=O)OC2)S(=O)(=O)CC(F)(F)F` had a Papp in the data set “in vitro” of 120 nm/s.

`C[C@@]1(N)Cc2ccc(F)c(c2)CC[C@H](c2ccc(F)cc2)NC(=O)c2cc(cc(-c3ccccc3C#N)c2)COC1=O` displayed a Papp in “in vitro” of 90 nm/s.
